SMILES strings stand for the structures.

For test [1], the system named is cilium cells from the human airway and cilia of frog palatine mucosa. The settings on record: expectorant, by inhalation; cited from earlier work.
Test [2] deals with Puromycin aminonucleoside (PAN) induced nephritis. The test is classed as in vivo, Male Sprague-Dawley (SD) rats. Conditions: PAN-induced nephritis. On the procedure: Effect on Puromycin aminonucleoside (PAN) induced nephritis, i.e. PAN induced nephrosis or nephrotic syndrome:
Male Sprague-Dawley (SD) rats weighing 160-180 g were used.
As the nephritis, i.e. nephrosis or nephrotic syndrome, causing substance, PAN (made by Sigma Co., Ltd.) was used. As the test compound, sodium N-acetylneuraminate (made by MECT Corporation) was used.
PAN was intraperitoneally administered in an amount of 80 mg per 1 kg of body weight to rats to cause nephritis, i.e. nephrosis or nephrotic syndrome. Then, the test compound (Groups I, II or III) or physiological saline solution (Group IV) was intraperitoneally administered 3 times a day (morning, noon and evening) for 14 consecutive days immediately after treatment with PAN as follows. As a positive control, methylprednisolone was subcutaneously administered to rats of Group V once a day (noon) for 14 consecutive days immediately after treatment with PAN. Moreover, 3, 6, 9 and 13 days after treatment with PAN, 5 ml water was loaded, and the urine was collected for 6 hours. Fourteen days after treatment with PAN, autopsies were made, the kidneys were extirpated and their moist weights were measured.
Group I: 0.1 mg Sodium N-acetylneuraminate per 1 kg of body weight was administered.
Group II: 0.5 mg Sodium N-acetylneuraminate per 1 kg of body weight was administered.
Group III: 1.0 mg Sodium N-acetylneuraminate per 1 kg of body weight was administered.
Group IV: 2.5 ml Physiological saline solution per 1 kg of body weight was administered.
Group V: 2 mg Methylprednisolone per 1 kg of body weight was administered.
Group VI: Normal rats (no drug was given).
Regarding the results of therapeutic effect for treating renal disease (nephrotic syndrome) of the given NANA compound per Example 1 above, it will be appreciated that the test compound sodium N-acetylneuraminate (Groups I, II and III) was dissolved in physiological saline and intraperitoneally administered, compared to intraperitoneal administration of physiological saline alone (Group IV) and subcutaneous administration of methylprednisolone (Group V).

The conditions of test [3]: cited from earlier work.

With `CC(=O)N[C@H]1[C@H]([C@H](O)[C@H](O)CO)OC(O)(C(=O)O)C[C@@H]1O` (some centres unmarked) [N-acetylneuraminic acid], the “Effect on ciliary motion in the airway” value in test [1] was “directly promotes ciliary motion in the airway”. Also, the “Effect on renal disease, nephrosis or nephrotic syndrome (in words)” value in test [2] was “has an inhibitory effect on nephritis”. The anti vital action entry in test [3] (article [1]) is recorded as “anti vital action”. Besides, the anti allergic action result in test [3] (article [4], guinea pigs) was “anti allergic action”. In addition, the anti inflammatory action result in test [3] (articles [2], [3]) is “anti inflammatory action”.

The values above are taken from patent publication US5393742A, “Preparation for treating renal disease” (MECT Corporation, priority 1990, dated 1995).
